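Dose response: 5 concentrations. Exposure: 48 h. Format: 96-well plates. Endpoint: linear interpolation; highest concentration if not reached. TGI: concentration producing complete growth inhibition.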
Legend:
Test in all cases: NCI tumour cell line growth inhibition, 48 h
[1] = system: SK-MEL-5 melanoma
[2] = system: DU-145 prostate
[3] = system: HCT-15 colon
[4] = system: NCI-H23 lung
[5] = system: SK-MEL-2 melanoma
[6] = system: T-47D breast
[7] = system: HCC-2998 colon
[8] = system: MDA-MB-231 breast
[9] = system: U251 CNS
[10] = system: MOLT-4 leukemia

| SMILES | TGI [1] [µM] | TGI [2] [µM] | TGI [3] [µM] | TGI [4] [µM] | TGI [5] [µM] | TGI [6] [µM] | TGI [7] [µM] | TGI [8] [µM] | TGI [9] [µM] | TGI [10] [µM] |
| --- | --- | --- | --- | --- | --- | --- | --- | --- | --- | --- |
| CCn1nc(-c2ccccc2)c2c1N(C)c1ccccc1-n1c(-c3ccccc3)nnc1-2 | 21.2 | 29.7 | 23.4 | 28.2 | 32.8 | 46.9 | 29.3 | 28.6 | 28.2 | – |
| CN(C)c1ccc(/C=N/n2c(-c3ccccc3)nc3ccccc3c2=O)cc1 | > 100 | > 100 | > 100 | > 100 | > 100 | > 100 | > 100 | > 100 | > 100 | > 100 |
| COC(=O)C1=COC(C)C2C[n+]3ccc4c([nH]c5ccccc54)c3CC12 (stereo not given) | > 100 | > 100 | > 100 | > 100 | > 100 | > 100 | > 100 | > 100 | > 100 | > 100 |
| CC(=O)OC(CC(C)C)P1(=O)N(CC(C)(C)C)[C@@H]2CCCC[C@H]2N1CC(C)(C)C (stereo not given in full) | 21.9 | 29.4 | 23.4 | 23.1 | 19.6 | 19.7 | 18.3 | 19.7 | 20.1 | 25.3 |
| O=c1[nH]c(=S)c2cc3c(=S)[nH]c(=O)n(CCC(c4ccccc4)(c4ccccc4)c4ccccc4)c3nc2n1CCC(c1ccccc1)(c1ccccc1)c1ccccc1 | > 100 | > 100 | > 100 | > 100 | > 100 | > 100 | > 100 | > 100 | > 100 | 84.1 |
| O=c1c2ncn(C3CCCCO3)c2n(-c2ccccc2)c(=S)n1-c1ccccc1 (stereo not given) | > 100 | > 100 | > 100 | 64.3 | > 79.7 | > 77.3 | > 100 | 73.5 | > 74.2 | > 100 |
| O=C(O)CS(=O)c1ccc2c3c(cccc13)C(=O)c1ccccc1-2 (stereo not given) | > 100 | > 100 | > 100 | > 100 | > 100 | > 100 | > 100 | > 100 | > 100 | – |
| COc1cc2c(cc1OC)C1=Cc3ccc(OC)c(OC)c3C(C#N)N1CC2 (stereo not given) | 38.6 | > 100 | > 100 | > 100 | 43.4 | 40.4 | 51.1 | 81.3 | > 100 | > 100 |
| O=c1[nH]nc(-c2ccc([N+](=O)[O-])cc2)n1/N=C/c1ccc([N+](=O)[O-])cc1 | > 100 | > 100 | > 100 | > 100 | > 100 | > 100 | > 100 | > 100 | > 100 | > 100 |
| c1ccc2c(c1)nc1n2CCNC1 | > 100 | > 100 | > 100 | > 100 | > 100 | > 100 | > 100 | > 100 | > 100 | > 100 |
| COC(=O)c1c(O)ccc2c1c1c(n2Cc2ccc(OC)cc2)C(=O)c2ccccc2C1=O | – | 52.5 | 16.7 | 32.2 | 25.6 | 46.1 | 7.18 | – | 23.4 | – |
| NNC(=Nc1ccccc1)SCc1ccccc1 | > 100 | > 100 | > 100 | > 100 | > 100 | – | > 100 | > 100 | > 100 | > 100 |
| N#CC(c1nc2ccccc2s1)c1nc(Cl)ncc1Br (stereo not given) | 43.5 | > 100 | > 100 | 73.9 | – | > 100 | – | > 100 | > 100 | > 100 |
| Cc1cccc(/C=N/NC(=S)N2CCCCCC2)n1 | 2 | – | > 36.3 | > 37.1 | 19.2 | > 100 | > 100 | 15.2 | – | – |
| CC(C)=NNc1cnnc2ccc([N+](=O)[O-])cc12 | > 100 | > 100 | > 100 | > 100 | > 100 | > 100 | – | > 100 | > 100 | > 100 |
| Cc1c(C#N)c2nnn(-c3ccc([N+](=O)[O-])cc3)c(=O)n2c1-c1ccccc1 | 25.2 | 26.1 | 24.4 | 18.5 | 22 | 14.3 | 20 | 34.7 | 14.5 | – |
| OCc1c2c(cc3c1CC1(C3)Cc3cc4c(c(CO)c3C1)CCC4)CCC2 | 17.9 | – | 34.6 | 29.8 | 36.7 | 31 | 35 | 32.1 | 29.4 | 28.3 |
| Cc1ccc2ccc(=O)oc2c1 | > 100 | > 100 | – | > 100 | > 100 | > 100 | – | > 100 | > 100 | > 100 |
| CN(C)NC1=NS(=O)(=O)c2cc3c(cc2S1)N(N(C)C)C(=O)c1cc2c(cc1N(N(C)C)C3=O)SC(NN(C)C)=NS2(=O)=O | > 10 | > 10 | > 10 | > 10 | > 10 | > 10 | > 10 | – | > 10 | > 10 |
| O=c1[nH]nc(Cc2ccccc2)n1/N=C/c1ccc([N+](=O)[O-])o1 | – | 42.3 | > 100 | 74.8 | 16 | 79.1 | 71.6 | 18.4 | 16.3 | > 100 |
| Cc1c(C)c2c(c(N)c1C#N)C(=O)N(OS(=O)(=O)c1ccccc1)C2=O | > 100 | 64.3 | 46 | – | > 100 | 20 | > 100 | > 100 | 49.5 | 87 |
| Cc1ccc(S(=O)(=O)N(CC(O)c2ccccc2)c2ccccc2F)cc1 (stereo not given) | 29.6 | 32.2 | 33 | 36.9 | 32.1 | 40.7 | 53.2 | 36.6 | 36.7 | – |

— PubChem BioAssay (NCI)
